From US20250296971A1, “GASTRIC INHIBITORY PEPTIDE RECEPTOR LIGANDS” (priority 2021, published 2025)
*1 amine or outer side, *2 acyl side, *3 side chain or, on linkers, in order; H or OH if unused. Where a SMILES comes first, the peptide text is derived from it. Bridges are numbered along the chain shown (N, C = ends). [ ]: non-standard residue; d: D form. The star is where a group is joined. NH(1-deoxy-D-glucityl) = OC[C@@H](O)[C@@H](O)[C@H](O)[C@@H](O)CN*; DOTA = O=C(O)CN1CCN(CC(=O)O)CCN(CC(=O)*)CCN(CC(=O)O)CC1; Trp(5-Cl) = N[C@@H](Cc1c[nH]c2ccc(Cl)cc12)C(=O)O; Pyridine(2,6-diCH2) = c1cc(C[*:1])nc(C[*:2])c1; Pro(4R-NH2) = N[C@H]1CN[C@H](C(=O)O)C1; Glutaryl = O=C(CCCC(=O)[*:2])[*:1]; X1 = O=C(CN1CCC(N[*:1])CC1)[*:2]; Api = NC1(C(=O)O)CCNCC1

Experiments:
[1] = target: T1, human GIP receptor (bioGIPR) (Homo sapiens, UniProt P48546); assay: Surface plasmon resonance (SPR) based binding assay; conditions: Single Cycle Kinetic mode, 25° C.
T1 construct: Biotinylate extracellular of the human GIP receptor (bioGIPR, Proteros biostructures GmbH, lot #02/2b); purchased Proteros biostructures GmbH lot #02/2b
T1 sequence (P48546 22-138 limits assumed): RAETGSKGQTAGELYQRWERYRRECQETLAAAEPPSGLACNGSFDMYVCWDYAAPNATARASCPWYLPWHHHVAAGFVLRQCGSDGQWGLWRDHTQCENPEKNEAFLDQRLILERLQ
Procedure, shortened: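 Binding was measured at 25 °C by single-cycle kinetics against a reference flow cell, with blank-run and drift correction, after capturing biotinylated GIPR extracellular domain to ~3500 RU. Running buffer: HBST, 0.1% DMSO. A 1:1 Langmuir model gave kinetic rates, KD, t1/2 and pKD.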

Rat GIPR = target: T2, Rat GIPR (Rattus norvegicus, UniProt P43219); assay: Radioligand binding assay, rat GIPR; conditions: 111In-labeled compound, 6 h, 37° C., read-out: pKD Category (converted)
T2 construct: host or cells: CHO-VGT
T2 sequence (P43219 19-455): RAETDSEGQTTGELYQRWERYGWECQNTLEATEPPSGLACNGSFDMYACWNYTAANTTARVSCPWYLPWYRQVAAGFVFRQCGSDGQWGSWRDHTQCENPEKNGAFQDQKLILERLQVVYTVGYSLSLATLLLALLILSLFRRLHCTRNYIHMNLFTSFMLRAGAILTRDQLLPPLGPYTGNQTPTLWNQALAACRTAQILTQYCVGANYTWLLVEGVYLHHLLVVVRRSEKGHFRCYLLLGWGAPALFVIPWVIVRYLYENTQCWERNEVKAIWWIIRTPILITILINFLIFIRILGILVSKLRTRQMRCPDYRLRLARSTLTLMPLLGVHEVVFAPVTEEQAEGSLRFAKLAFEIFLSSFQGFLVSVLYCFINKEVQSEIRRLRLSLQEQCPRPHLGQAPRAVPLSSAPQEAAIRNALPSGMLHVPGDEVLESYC
Protocol: In order to assess the affinity of ^111In-labeled compounds to the GIPR receptor of different species, a radioligand binding assay was established.
CHO-K1 cells (GenScript Biotech, #M00486) were stably transfected with the human GIPR. CHO-K1-hGIPR cells were cultured in Ham's F12 medium (Sigma-Aldrich, #N4888) including 10% fetal calf serum (FCS), 2 mM L-glutamine, 100 U/mL penicillin, 100 µg/mL streptomycin, 200 µg/mL Zeocin and 100 µg/mL HygromycinB. To evaluate the species cross-reactivity, CHO-VGT cells were transfected with the human, dog, rat and mouse GIPR (Inscreenex GmbH), which were cultured in DMEM/Ham's F12 Medium 1:1 (Biochrom, #F485) including 5% fetal calf serum (FCS), 2 mM L-glutamine, 100 U/mL penicillin and 100 μg/mL streptomycin. Cells were detached with Accutase (Biolegend, #BLD-423201) and counted using a particle counter (CASY Model TT; Schärfe Systems). Cell concentrations were adjusted to 3×10^5 mL^−1, and 1.000 μL of the suspension per well were dispensed into flat-clear-bottom 24 well plates.
Approximately 24 hours after re-seeding, the medium was aspirated and the cells were washed once with 700 μL assay medium (Ham's medium with 20 mM HEPES). […]
At the end of incubation time, cells were washed and subsequently harvested in 300 μL RIPA buffer containing PIC. Radioactivity of the cell lysate of each well was counted using a gamma counter (Perkin Elmer). […]

t1/2 Category ([1]; SPR dissociation half-life): A (t1/2 values>15 min) | Kd ([1]; SPR, 1:1 Langmuir binding model, read-out: pKD Category (converted)): < 1 nM | Kd (Rat GIPR): 0.316 to 1 nM
SMILES: CC[C@H](C)[C@@H]1NC(=O)[C@H](CC(C)C)NC(=O)C2(CCN(C(=O)CN3CCN(CC(=O)O)CCN(CC(=O)O)CCN(CC(=O)O)CC3)CC2)NC(=O)[C@@H](NC(=O)[C@@H](CC(C)C)NC(=O)[C@H](CCC(=O)O)NC(=O)[C@@H]2C[C@@H](N)CN2C(=O)[C@H](Cc2c[nH]c3ccc(Cl)cc23)NC(=O)[C@H](Cc2c[nH]c3ccccc23)NC(=O)[C@H](CC(=O)O)NC(=O)CCCC(=O)NC[C@H](O)[C@@H](O)[C@H](O)[C@H](O)CO)CSCc2cccc(n2)CSC[C@@H](C(=O)NC2CCN(CC(=O)N[C@H](CCC(=O)NC[C@H](O)[C@@H](O)[C@H](O)[C@H](O)CO)C(N)=O)CC2)NC1=O [GIP-001, AGLU-Glutar-Asp-Trp-5Clw-Tap-Glu-leu-[Cys(2Lut)-Apc(DOTA)-Leu-Ile-Cys]-APAc-glu(AGLU)-NH2] ({NH(1-deoxy-D-glucityl)-Glutaryl}-DW[Trp(5-Cl)][Pro(4R-NH2)]E[dL]C[Api](DOTA)LIC[X1][dE](NH(1-deoxy-D-glucityl))-NH2; linker 7-11 via Pyridine(2,6-diCH2))
